Measurements published in patent publication US12030903B2, “Antiviral compounds” (Gilead Sciences, Inc., priority 2020, dated 2024).
pEC50: −log10 of the molar value.

How the values were obtained:
[1] = test system: Dengue 2, New Guinea strain (NGC); assay: DENV-2 moDC EC50 (qPCR of viral RNA in infected moDCs); assay type: cell-based, New Guinea strain (NGC); human moDCs; conditions: Dengue virus, human moDCs infected with Dengue 2 NGC, MOI=0.1, 48 hours
Protocol: Example 82. DENV-2 moDC EC50
Human monocyte-derived dendritic cells (moDCs) were derived from CD14+ monocytes (AllCells) cultured in Human Mo-DC Differentiation medium containing GM-CSF and IL-4 (Miltenyi Biotec). On day 7, moDCs were harvested by mechanical disruption, washed and suspended in serum-free RPMI. moDCs were infected with Vero-derived Dengue 2, New Guinea strain (NGC) at a MOI=0.1 for two hours in serum-free RPMI with gentle agitation at 37° C. Cells were washed and resuspended in 10% serum-containing RPMI (Gibco, supplemented with sodium pyruvate, NEAA, Penicillin-Streptomycin). […] were plated in triplicate in 96-well plates with compounds dispensed at graded doses (Hewlett-Packard D300 Digital Dispenser). All wells were normalized to 0.25% DMSO. At 48 hours, cells were washed with 1×PBS and all supernatants removed. Total RNA was extracted using RNEasy 96 plates (Qiagen) and used to generate first-strand cDNA using XLT cDNA 5× Supermix (QuantaBio). cDNA was used as a template in a Taqman qPCR duplex reaction specific to DENV2 viral and GAPDH gene expression. EC50 values were determined using Prism Graphpad software, with normalization to a positive control and no compound negative control wells.

[2] = HEp-2 CC50 (cytotoxicity in uninfected HEp-2 cells); assay type: cell-based; conditions: human, CellTiter Glo
Protocol: Instead, an uninfected cell mixture at the same density is added at 20 uL/well to plates containing prediluted compounds, also at 100 nL/sample. Assay plates are then incubated for 4 days followed by a cell viability test using the same CellTiter Glo reagent addition and measurement of luminescent readouts. Untreated cell and cells treated at 2 μM puromycin (Sigma, St. Louis, MO) serve as 100% and 0% cell viability control, respectively.

[3] = moDC CC50 (CellTiter Glo viability); assay type: cell-based, Human; conditions: human, uninfected moDCs
Protocol: Human monocyte-derived dendritic cells (moDCs) were derived from CD14+ monocytes (AllCells) cultured in Human Mo-DC Differentiation medium containing GM-CSF and IL-4 (Miltenyi Biotec). On day 7, moDCs were harvested by mechanical disruption, washed and cultured in triplicate at […] cells/well in 96-well plates with compounds dispensed at graded doses (Hewlett-Packard D300 Digital Dispenser). All wells were normalized to 0.25% DMSO. After 48 hours, CellTiter Glo (Promega) was added and incubated for 10 minutes at room temp before reading on a luminometer. % viability curves were calculated against no compound and no cell control wells. CC50 values were determined using Prism Graphpad software.

RSV strain A2 = assay: RSV HEp-2 EC50 (infectious cytopathic cell protection assay); assay type: cell-based, RSV strain A2; HEp-2 cells; conditions: human respiratory syncytial virus, HEp-2, 96 h, read-out: RSV Hep-2 EC50
Protocol: Example 86. RSV HEp-2 EC50
Antiviral activity against RSV is determined using an infectious cytopathic cell protection assay in HEp-2 cells. In this assay, compounds inhibiting viral infection and/or replication produce a cytoprotective effect against the virus-induced cell killing that can be quantified using a cell viability reagent. The techniques used here are novel adaptations of methods described in published literature (Chapman et al., Antimicrob Agents Chemother. 2007, 51(9):3346-53.)
HEp-2 cells are obtained from ATCC (Manassas, VI) and maintained in MEM media supplemented with 10% fetal bovine serum and penicillin/streptomycin. Cells are passaged twice a week and kept at subconfluent stage. Commercial stock of RSV strain A2 (Advanced Biotechnologies, Columbia, MD) is titered before compound testing to determine the appropriate dilution of the virus stock that generates desirable cytopathic effect in HEp-2 cells.
For antiviral tests, HEp-2 cells are grown in large cell culture flasks to near confluency but not fully so. The compounds to be tested are prediluted in DMSO in 384-well compound dilution plates, either in an 8 or 40 sample per plate standardized dose response format. 3-fold serial dilution increments of each test compound are prepared in the plates and test samples are transferred via acoustic transfer apparatus (Echo, Labcyte) at 100 nL per well into cell culture assay 384-well plates. Each compound dilution is transferred in single or quadruplicate samples into dry assay plates, which are stored until assay is ready to go. The positive and negative controls are laid out in opposite on ends of the plate in vertical blocks (1 column).
Subsequently, an infectious mixture is prepared using an appropriate dilution of virus stock previously determined by titration with cells at a density of 50,000/mL and 20 uL/well is added to test plates w/compounds via automation (uFlow, Biotek). Each plate includes negative and positive controls (16 replicates each) to create 0% and 100% virus inhibition standards, respectively. Following the infection with RSV, testing plates are incubated for 4 days in a 37° C. cell culture incubator. After the incubation, a cell viability reagent, Cell TiterGlo (Promega, Madison, WI) is added to the assay plates, which are incubated briefly, and a luminescent readout is measured (Envision, Perkin Elmer) in all the assay plates. The RSV-induced cytopathic effect, percentage inhibition, is determined from the levels of remaining cell viability. […] Various potent anti-RSV tool compounds are used as positive controls for antiviral activity.

[4] = Huh-7 CC50 (CellTiter Glo viability); assay type: cell-based, Human; conditions: human, Huh7 hepatocarcinoma cells
Protocol: Human hepatocarcinoma 7 (Huh7) cells were maintained in 10% FCS-containing complete DMEM. On day of assay, cells were trypsinized with 0.1% Trypsin-EDTA, washed and cultured in triplicate at 1-2×10^4 cells/well in 96-well plates with compounds dispensed at graded doses (Hewlett-Packard D300 Digital Dispenser). All wells were normalized to 0.25% DMSO. After 48 hours, CellTiter Glo (Promega) was added and incubated for 10 minutes at room temp before reading on a luminometer. % viability curves were calculated against no compound and no cell control wells. CC50 values were determined using Prism Graphpad software.

[5] = test system: Dengue serotype 2 New Guinea C (NGC) strain; assay: DENV-2 Huh-7 EC50 (qPCR of viral RNA in infected Huh7 cells); assay type: cell-based; conditions: Dengue virus, DENV2, Huh-7, Huh7 cells infected with Dengue serotype 2 NGC, MOI=0.1, 48 hours
Protocol: Huh7 (Human hepatocarcinoma 7) cells were maintained in 10% FCS-containing DMEM complete media. On the day of the assay, cells were trypsinized (0.1% Trypsin-EDTA), washed and infected for 2 hours in serum-free DMEM with Dengue serotype 2 New Guinea C (NGC) strain at MOI=0.1 with gentle agitation at 37° C. After 2 hours, cells were washed with serum-free media and suspended in 10% FCS-containing DMEM (Gibco, supplemented with sodium pyruvate, NEAA, Penicillin-Streptomycin). 10^5 cells were plated in triplicate in 96-well plates with compounds dispensed at graded doses (Hewlett-Packard D300 Digital Dispenser). All wells were normalized to 0.25% DMSO. At 48 hours, cells were washed with 1× PBS and all supernatants removed. Total RNA was extracted using RNEasy 96 plates (Qiagen) and used to generate first-strand cDNA using XLT cDNA 5× Supermix (QuantaBio). cDNA was used as a template in a Taqman qPCR duplex reaction specific to DENV2 viral and GAPDH gene expression. EC50 values were determined using Prism Graphpad software, with normalization to a positive control and no compound negative control wells.

SMILES | pEC50 [1] | CC50 at 4 days [2] | CC50 at 48 h [3] | pEC50 (RSV strain A2) | CC50 at 48 h [4] | pEC50 [5]
CC(C)C(=O)O[C@H]1[C@H](c2ccc3c(N)ncnn23)O[C@](CF)(COP(=O)(N[C@@H](C)C(=O)OC2CCCCC2)Oc2ccccc2)[C@H]1OC(=O)C(C)C (single isomer, unassigned) [Example 63] | 6.49 | 19.1 µM | 5.6 µM | 5.62 | 10.7 µM | 6.22
C[C@H](NP(=O)(OC[C@@]1(CF)O[C@@H](c2ccc3c(N)ncnn23)[C@H](O)[C@@H]1O)Oc1ccccc1)C(=O)OCC(C)(C)C (stereo partly drawn) [Example 3, neopentyl ((((2R,3S,4R,5S)-5-(4-aminopyrrolo[2,1-f][1,2,4]triazin-7-yl)-2-(fluoromethyl)-3,4-dihydroxytetrahydrofuran-2-yl)methoxy)(phenoxy)phosphoryl)-L-alaninate] | 6.81 | > 100 µM | > 11.1 µM | 7.11 | > 25 µM | 7.04
C[C@H](NP(=O)(OC[C@@]1(CF)O[C@@H](c2ccc3c(N)ncnn23)[C@H](O)[C@@H]1O)Oc1ccccc1)C(=O)OCCC(C)(C)C (stereo partly drawn) [Example 4, 3,3-dimethylbutyl ((((2R,3S,4R,5S)-5-(4-aminopyrrolo[2,1-f][1,2,4]triazin-7-yl)-2-(fluoromethyl)-3,4-dihydroxytetrahydrofuran-2-yl)methoxy)(phenoxy)phosphoryl)-L-alaninate] | 7.24 | > 100 µM | 4.78 µM | 7.54 | 17.8 µM | 6.88
CCC(C)(C)COC(=O)[C@H](C)NP(=O)(OC[C@@]1(CF)O[C@@H](c2ccc3c(N)ncnn23)[C@H](O)[C@@H]1O)Oc1ccccc1 (stereo partly drawn) [Example 7, 2,2-dimethylbutyl ((((2R,3S,4R,5S)-5-(4-aminopyrrolo[2,1-f][1,2,4]triazin-7-yl)-2-(fluoromethyl)-3,4-dihydroxytetrahydrofuran-2-yl)methoxy)(phenoxy)phosphoryl)-L-alaninate] | 7.40 | > 100 µM | 6.69 µM | 7.62 | > 25 µM | 6.80
CCOC(=O)[C@H](C)NP(=O)(OC[C@@]1(CF)O[C@@H](c2ccc3c(N)ncnn23)[C@H](O)[C@@H]1O)Oc1ccccc1 (stereo partly drawn) [Example 13, ethyl ((((2R,3S,4R,5S)-5-(4-aminopyrrolo[2,1-f][1,2,4]triazin-7-yl)-2-(fluoromethyl)-3,4-dihydroxytetrahydrofuran-2-yl)methoxy)(phenoxy)phosphoryl)-L-alaninate] | 6.56 | > 89.4 µM | > 10.2 µM | 6.07 | > 25 µM | 6.31
C[C@H](NP(=O)(OC[C@@]1(CF)O[C@@H](c2ccc3c(N)ncnn23)[C@H](O)[C@@H]1O)Oc1ccccc1)C(=O)OC1CCCCC1 (stereo partly drawn) [Example 14, cyclohexyl ((((2R,3S,4R,5S)-5-(4-aminopyrrolo[2,1-f][1,2,4]triazin-7-yl)-2-(fluoromethyl)-3,4-dihydroxytetrahydrofuran-2-yl)methoxy)(phenoxy)phosphoryl)-L-alaninate] | 6.78 | > 100 µM | > 7.76 µM | 6.73 | > 25 µM | 6.69
CCC(=O)O[C@H]1[C@H](c2ccc3c(N)ncnn23)O[C@](CF)(CO[P@@](=O)(N[C@@H](C)C(=O)OC(C)C)Oc2ccccc2)[C@H]1OC(=O)CC [Example 22, (2R,3S,4S,5S)-5-(4-aminopyrrolo[2,1-f][1,2,4]triazin-7-yl)-2-(fluoromethyl)-2-((((S)-(((S)-1-isopropoxy-1-oxopropan-2-yl)amino)(phenoxy)phosphoryl)oxy)methyl) tetrahydrofuran-3,4-diyl dipropionate] | 6.13 | 71.7 µM | > 23.6 µM | 5.63 | > 25 µM | 5.99
CC(C)OC(=O)[C@H](C)N[P@](=O)(OC[C@@]1(CF)O[C@@H](c2ccc3c(N)ncnn23)[C@H](OC(=O)C(C)C)[C@@H]1OC(=O)C(C)C)Oc1ccccc1 [Example 23, (2R,3S,4S,5S)-5-(4-aminopyrrolo[2,1-f][1,2,4]triazin-7-yl)-2-(fluoromethyl)-2-((((S)-(((S)-1-isopropoxy-1-oxopropan-2-yl)amino)(phenoxy)phosphoryl)oxy)methyl) tetrahydrofuran-3,4-diyl bis(2-methylpropanoate)] | 6.41 | 26.3 µM | 10.9 µM | 5.36 | > 23.2 µM | 5.74
CCCCOCCOC(=O)[C@H](C)NP(=O)(OC[C@@]1(CF)O[C@@H](c2ccc3c(N)ncnn23)[C@H](O)[C@@H]1O)Oc1ccccc1 (stereo partly drawn) [Example 42, 2-butoxyethyl ((((2R,3S,4R,5S)-5-(4-aminopyrrolo[2,1-f][1,2,4]triazin-7-yl)-2-(fluoromethyl)-3,4-dihydroxytetrahydrofuran-2-yl)methoxy)(phenoxy)phosphoryl)-L-alaninate] | 6.59 | > 100 µM | 5.33 µM | 6.07 | 21.1 µM | 6.18
